Measured values reported in US10603304B1, “Compositions and methods for treating anxiety” (priority 2015, dated 2020).

How the values were obtained:
lynx2KO mice [1] = assay: light dark box experiment (latency to enter dark enclosed environment); format: in vivo; details: lynx2KO mice under chronic stress with administration of mec, as opposed to lynx2KO mice without mec (FIG. 2A)
Text: FIG. 2A is a graph of the time in seconds (latency) for wild type (WT) (black bars) or lynx2 knock out (KO) (white bars) mice to enter a dark enclosed environment under conditions of saline, chronic stress, or chronic stress with administration of mecamylamine (mec) as indicated, according to embodiments of the present invention.

lynx2KO mice [2] = assay: fear extinction experiment (fear associated with a noise after shock training); format: in vivo; details: lynx2KO mice with administration of mec compared to lynx2KO mice without mec (FIGS. 2B-2C)
Protocol: FIG. 2B is a graph of fear observed in wild type (black circles) and lynx2KO mice (white triangles) after fear training (an electric shock depicted in yellow) associated with a noise for 24 hours followed by the same noise without the shock to measure the mouse's capability to lose the fear, according to embodiments of the present invention.
FIG. 2C is a graph of fear observed in lynx2KO mice during the fear extinction experiment of FIG. 2B with a group of lynx2KO mice receiving mecamylamine (mec), according to embodiments of the present invention.

[3] = test system: amygdala (EC) neurons of lynx2KO mice; assay: long term depression (LTD) of evoked fEPSPs in brain slices after theta pulse stimulations; format: cell-based; details: brain slices from lynx2KO mice in ACSF solution with 20 mM methyllycaconitine (MLA), theta pulse stimulations (FIG. 4D)
Protocol: FIG. 4D is a graph of stimulating electrode traces from long term depression (LTD) experiments using extracellular recordings for evoked field excitatory post-synaptic potentials (fEPSPs) in […] (EC) brain slices in ACSF solution with […] methyllycaconitine (MLA) from lynx2 knockout (KO) mice before (left of zero minutes) and after (right of zero minutes) theta pulse stimulations (TSP), according to embodiments of the present invention.
The animals were anesthetized by isoflurane in an anesthetic chamber to a tolerant state (ml/kg) and euthanized through decapitation. […]
Field excitatory postsynaptic potentials (fEPSPs) were evoked by 0.05 Hz test stimulus though a bipolar stimulating electrode placed on external Capsule (EC), and a glass pipette as recording electrode was filled with ACSF and placed in BLA. […] Access resistances were continuously monitored and neurons with more than 20% change of series resistance were excluded from data analysis.
The plasticity ratio was calculated from the average EPSP amplitude of the last 10 mins of baseline recording and the last 15 mins after high frequency or low stimulus, for LTP and LTD studies, respectively. […] For all experiments, treatment effects were analyzed with one-way ANOVA, followed by the appropriate post hoc tests. […]

Compound | latency to dark (lynx2KO mice [1]) | ability to unlearn a fear associated with a noise (fear extinction) (lynx2KO mice [2]) | rescue of induced long term depression (LTD) [3]
CNC1(C)C2CCC(C2)C1(C)C (stereo not drawn) [mecamylamine] | increased latency to dark | increased ability to unlearn a fear | –
CCN1C[C@]2(COC(=O)c3ccccc3N3C(=O)C[C@H](C)C3=O)CC[C@H](OC)[C@@]34[C@@H]5C[C@H]6[C@H](OC)[C@@H]5[C@](O)(C[C@@H]6OC)[C@@](O)([C@@H](OC)[C@H]23)[C@@H]14 [methyllycaconitine] | – | – | able to rescue induced long term depression (LTD)
